From patent publication US10106554B2, “7-(morpholinyl)-2-(N-piperazinyl) methyl thieno [2, 3-C] pyridine derivatives as anticancer drugs” (NATCO PHARMA LIMITED, priority 2014, dated 2018)

Assays:
[1] = tested on: NCI-H292 induced tumor (Erlotinib resistant lung cancer); experiment: Antagonism of NCI-H292 induced tumor in nude mice (histopathology); assay type: in vivo; conditions: 50 mg/kg for 15 days; histopathology (4/5); positive control tumor present in all 5 animals
Description: The study was carried out with 15 Nude Mice (8 Male+7 Female).Weighing of Nude Mice were taken initially before inoculation of cell line and made into groups. Grouping as follows:
Group I: Positive control (4 Male+1 Female)
The cell line was inoculated to Nude Mice subcutaneously to the right hind limb flank at a strength of 6.25×10^5 cells/0.2 ml. […] The tumor volume was measured using the formula […] (l=length of tumor & w=width of tumor).When the mean tumor volume was recorded above 400 mm^3, the treatment with the above drugs will be started. […] Weight of Nude Mice Was taken daily before dosing and tumor measurement was done on alternative days using digital Vernier caliper. […] Mice dead during experimental schedule, the tumor with skin and liver were collected and stored in 10% buffered formalin .All the organs after collection were sent for histopathology.

[2] = tested on: MIAPaca-2 induced tumor; experiment: Antagonism of MIAPaca-2 induced tumor in nude mice; assay type: in vivo; conditions: for mean tumor area: p.o daily for 30 days, control 33.13 mm^2
Description: This study was carried out with 20 Male Nude Mice. Weighing of Nude Mice were taken initially before inoculation of cell line and made into four groups.
Group-I: Positive control (5 Male)
Group-II: COMPOUND 2 (5 Male) (200 mg/kg, p.o)
Group-III: COMPOUND 1 (5 Male) (50 mg/kg, p.o)
Group-IV: Standard (5 Male) (Erlotinib hydrochloride—50 mg/kg, p.o & Gemcitabine hydrochloride—120 mg/kg, i.p.)
The cell line was inoculated to Nude Mice subcutaneously to the right hind limb flank at a strength of 1×10^7 cells/0.2 ml. […] The tumor volume was measured using the formula ½1×w^2 (l=length of tumor & w=width of tumor). When the mean tumor volume was recorded above 400 mm^3, the treatment with the above drugs were started. The above drugs were administered orally daily for 30 days, except Gemcitabine hydrochloride was administered on 1st and 3rd day of each week. Weight of Nude Mice was taken daily before dosing and tumor measurement was done on alternative days using digital Vernier caliper. Surviving animals were sacrificed after the dosing is complete for 30 days and organs (tumor with skin and pancreas) were collected.
Mice dead during experimental schedule, the tumor with skin and pancreas were collected and tumor with skin was stored in 10% buffered formalin and pancreas were stored in Bouin's solution. All the organs after collection were sent for histopathology.

[3] = MTD (Maximum Tolerated Dose) study in mice, OECD procedure; conditions: both sexes, mouse, in vivo, oral; p.o, single dose, 14 days observation, Swiss Albino mice
Description: The method was carried out as per OECD procedure. The study was carried out using 5 (2 Male+3 Female) Swiss Albino Mice weighing between 18-30 gms. All the animals were fasted for 3 hrs prior to the oral administration of the drug. After preparing the sample administer immediately to their body all the animals according weight. […] At the end of 14 days all the surviving animals were autopsied and stomach were cut opened and observed for absorption of the drug through the GIT. The result is given in FIG. 1. • COMPOUND 2: MTD>2000 mg.kg, p.o (Single dose 14 days observation) • COMPOUND 1: MTD=500 mg/kg, p.o (Single dose 14 days observation) b. Antagonism of MIAPaca—2 Induced Tumor in Nude Mice: […]

[4] = 200 mg/kg, p.o, 5 mice, control 40%

SMILES | clearance of tumor, animals [1] [%] | mean tumor area ([2]; 50 mg/kg) [mm^2] | remaining tumors showing no much activity (no invasion) ([2]; 50 mg/kg, p.o, 5 mice) [%] | tumors showing invasion into underlying muscle ([2]; 50 mg/kg, p.o, 5 mice) [%] | MTD at 14 days [3] [mg/kg] | mean tumor area ([2]; 200 mg/kg) [mm^2] | tumors localized, no tumor invasion seen [2, 4] [%] | tumors showing vascular invasion [2, 4] [%]
Cc1c(CN2CCN(S(C)(=O)=O)CC2)sc2c(N3CCOCC3)nc(-c3cnc(N)nc3)cc12 [COMPOUND 1, 5-[3-methyl-2-[(4-methylsulfonylpiperazin-1-yl)methyl]-7-morpholino-thieno[2,3-c]pyridin-5-yl]pyrimidin-2-amine] | 80 | 8.60 | 80 | 20 | 500 |  |  | 
CS(=O)(=O)N1CCN(Cc2cc3cc(-c4cnc(N)nc4)nc(N4CCOCC4)c3s2)CC1 [COMPOUND 2, 5-[2-[(4-methylsulfonylpiperazin-1-yl)methyl]-7-morpholino-thieno[2,3-c]pyridin-5-yl]pyrimidin-2-amine] |  |  |  |  | > 2000 | 10.90 | 60 | 40
